We go through one compound from PMC2746281 (PLoS ONE, 2009).

SMILES strings stand for the structures.

One data set has as its target TrkB (Homo sapiens, UniProt Q16620). To be noted: read-out: Cell-based assay IC50, TrkB; Ba/F3 cells expressing the enzyme; cell proliferation, WST-1. (Tetrazolium dyes change colour on reduction, which living cells bring about.)
In data set [1] the test system is primary BMMCs from mice expressing wild-type KIT. As to the kind of experiment: SCF-stimulated proliferation and KIT tyrosine phosphorylation in primary BMMCs. The format is cell-based. To be noted: Mus musculus, BMMC, primary murine BMMCs, read-out: IC50, SCF-stimulated cell proliferation and tyrosine phosphorylation of KIT in BMMCs. How it is done: (B) western blotting analysis of HMC-1α155 tyrosine phosphorylation. […] (D) Western blotting analysis of BMMC tyrosine phosphorylation. Cell proliferation was assessed by WST-1 colorimetric assay. […] MW = molecular weight.

A further data set concerns the target T1, Pim1 (Homo sapiens, UniProt P11309).
T1 construct: purchased Proqinase (Germany)
As to the kind of experiment: Recombinant kinase screen (Proqinase), Pim1. Conditions: recombinant human enzyme; single experiment, kinase screen by Proqinase. It is filed as biochemical. The procedure:
(§1) Full details for the generation of recombinant human KIT intracellular domain and other protein kinases (including Lyn, platelet derived growth factor receptor β, epidermal growth factor receptor, fibroblast growth factor receptor 1, Src, HCK, PYK, FES, Btk, Bmx, c-Ret, c-Fms, Syk, and c-Met) are provided in the Supplemental Methods (see Supporting Information; Methods S1). Experiments on ABL1, Akt1, protein kinase C-α, insulin-like growth factor receptor 1, and Pim1 were carried out by Proqinase (Germany). All other recombinant protein kinases were performed in-house using an enzyme-linked immunoassay; experimental details are provided in the Supplemental Methods (see Supporting Information; Methods S1).

Data set [2] addresses Fibroblast growth factor receptor 1 (Homo sapiens, UniProt P11362). As to the kind of experiment: Recombinant kinase ELISA assay, FGFR1. It is filed as biochemical. Details: fibroblast growth factor receptor 1 (572–959; BC018128); 6xHN (N); made in house; host or cells: baculovirus, Sf9 insect cells. To be noted: recombinant human enzyme; ELISA-based assay, poly(Glu,Tyr 4:1) substrate. The procedure: as §1
The sequences encoding PDGF receptor β (residues 554–1106; GenBank accession no. BC032224), Lyn B (2–583; accession no. BC059394), fibroblast growth factor receptor 1 (572–959; accession no. BC018128), Src (2–536; accession no. BC011566), Btk (2–659; accession no. BC109079), Bmx (2–675; accession no. BC016652), c-Ret (713–1114; accession no. BC004257), c-Fms (538–972; BC047531), Syk (2–612; BC011399), Hck (2-526; accession no. BC014435), Fes (2-822; accession no. BC035357), PYK2 (2-1006; accession no. BC042599) and c-Met (949–1398; accession no. lifeseq3489592) were amplified by PCR from IMAGE cDNA clones purchased from Openbiosystems. […]
On the technique in general: An ELISA detects its analyte on a solid surface through an enzyme-linked reagent.

Data set [3] has as its system Δ27-expressing Ba/F3 cells. As to the kind of experiment: Ba/F3 Δ27 tumour model in nude mice. It is filed as in vivo. To be noted: for average tumour volume increase: days 14 to 25, tumours 40 mm^3, vehicle 1200%; for animals with no detectable tumours at day 25: n = 8 per group. The procedure: Nude mice were gamma-irradiated and implanted after 24 hours with Δ27-expressing Ba/F3 cells by subcutaneous injection.
placebo (vehicle control); or untreated (n = 8 per group). […]
Female MBRI Nu/Nu mice (7 weeks old) (Janvier, France) were housed under specific pathogen-free conditions at 20±1°C with a 12 hours light/12 hours dark cycle and ad libitum access to food and filtered water. The mice were allowed to acclimatise to the study conditions for 10 to 20 days prior to experiments. All animal experiments were performed according to Centre national de la recherche scientifique (CNRS) ethical guidelines of animal experimentation. […] The cells were centrifuged and resuspended at 5×10^6 or 7.5×10^6 cells/ml in phosphate-buffered saline. Mice were treated with 5 Gy of gamma radiation and after 24 hours they were injected in the right flank with 1.5×10^6 Δ27 Ba/F3 cells. […] For all animals, body weight was measured on the day of injection and every 5 days thereafter, with the tumour's size measured via callipers every 5 days during the treatment period for estimation of tumour volume. During the predose period and for 2 weeks post-treatment, the animals were checked for mortality or signs of morbidity once a day, increasing to twice a day checks during the treatment period.
Survival in the in vivo mouse studies was assessed by Kaplan-Meier analysis using GraphPad Prism (GraphPad Software, Inc. USA) with comparison of survival curves performed by the logrank Mantel-Cox test. The appropriate Wilcoxon or Kruskall-Wallis tests were used for group comparison of tumour volumes and BMMC migration.

The target of data set [4] is Epidermal growth factor receptor (Homo sapiens, UniProt P00533). Kind of data set: Recombinant kinase ELISA assay, EGFR. The format is biochemical. Also noted: The cDNA encoding the EGF receptor (664–1210); 6xHN (N); made in house; host or cells: baculovirus, Sf9 insect cells. To be noted: recombinant human enzyme; ELISA-based assay, poly(Glu,Tyr 4:1) substrate. How it is done:
as §1
A 96-well microtitre plate (Immulon 2HB; ThermoLifeScience, Finland) was coated overnight with 0.25 mg/ml poly(Glu,Tyr 4:1), rinsed twice with 250 µl of washing buffer (10 mM phosphate-buffered saline [pH 7.4] and 0.05% Tween 20) and dried for 2 hours at room temperature. […] Reactions were initiated upon introduction of the enzyme and terminated with the addition of one reaction volume (50 μl) of 100 mM EDTA per 5 M urea mix. […] The final reaction product was quantified by spectrophotometry at 450 nm.

The next data set deals with Jak2 (Homo sapiens, UniProt O60674). As to the kind of experiment: Recombinant kinase screen (Proqinase), Jak2. The format is biochemical. To be noted: recombinant human enzyme; single experiment, kinase screen by Proqinase.
Chain of Jak2 (O60674 whole entry): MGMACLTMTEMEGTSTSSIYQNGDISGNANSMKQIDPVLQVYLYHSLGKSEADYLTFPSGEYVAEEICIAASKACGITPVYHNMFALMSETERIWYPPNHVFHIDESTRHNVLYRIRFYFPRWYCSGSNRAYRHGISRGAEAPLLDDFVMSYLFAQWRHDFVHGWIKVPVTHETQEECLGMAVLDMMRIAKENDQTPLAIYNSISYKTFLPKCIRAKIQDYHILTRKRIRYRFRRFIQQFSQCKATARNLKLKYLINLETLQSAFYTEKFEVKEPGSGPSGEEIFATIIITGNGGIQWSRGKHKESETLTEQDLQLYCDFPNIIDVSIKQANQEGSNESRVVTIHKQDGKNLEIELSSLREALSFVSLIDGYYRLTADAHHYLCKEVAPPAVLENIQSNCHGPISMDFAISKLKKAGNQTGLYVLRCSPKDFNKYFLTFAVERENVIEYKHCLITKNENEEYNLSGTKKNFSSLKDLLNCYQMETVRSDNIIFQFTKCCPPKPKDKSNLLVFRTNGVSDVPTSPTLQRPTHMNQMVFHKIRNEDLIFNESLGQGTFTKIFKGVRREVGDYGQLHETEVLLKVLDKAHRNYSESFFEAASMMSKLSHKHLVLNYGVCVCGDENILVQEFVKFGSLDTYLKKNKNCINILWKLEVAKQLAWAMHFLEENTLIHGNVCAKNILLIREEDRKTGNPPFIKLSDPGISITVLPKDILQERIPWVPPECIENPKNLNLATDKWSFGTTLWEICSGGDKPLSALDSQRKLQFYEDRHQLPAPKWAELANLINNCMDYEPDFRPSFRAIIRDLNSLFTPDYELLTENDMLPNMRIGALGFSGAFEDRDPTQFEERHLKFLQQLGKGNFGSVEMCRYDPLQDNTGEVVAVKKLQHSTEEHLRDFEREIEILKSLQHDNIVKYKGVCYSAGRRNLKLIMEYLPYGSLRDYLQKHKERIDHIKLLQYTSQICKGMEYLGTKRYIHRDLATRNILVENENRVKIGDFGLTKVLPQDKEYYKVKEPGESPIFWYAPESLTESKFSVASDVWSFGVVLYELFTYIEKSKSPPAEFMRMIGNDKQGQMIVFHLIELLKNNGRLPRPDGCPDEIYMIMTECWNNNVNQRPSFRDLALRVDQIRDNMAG

Chain of Epidermal growth factor receptor (P00533 664-1210): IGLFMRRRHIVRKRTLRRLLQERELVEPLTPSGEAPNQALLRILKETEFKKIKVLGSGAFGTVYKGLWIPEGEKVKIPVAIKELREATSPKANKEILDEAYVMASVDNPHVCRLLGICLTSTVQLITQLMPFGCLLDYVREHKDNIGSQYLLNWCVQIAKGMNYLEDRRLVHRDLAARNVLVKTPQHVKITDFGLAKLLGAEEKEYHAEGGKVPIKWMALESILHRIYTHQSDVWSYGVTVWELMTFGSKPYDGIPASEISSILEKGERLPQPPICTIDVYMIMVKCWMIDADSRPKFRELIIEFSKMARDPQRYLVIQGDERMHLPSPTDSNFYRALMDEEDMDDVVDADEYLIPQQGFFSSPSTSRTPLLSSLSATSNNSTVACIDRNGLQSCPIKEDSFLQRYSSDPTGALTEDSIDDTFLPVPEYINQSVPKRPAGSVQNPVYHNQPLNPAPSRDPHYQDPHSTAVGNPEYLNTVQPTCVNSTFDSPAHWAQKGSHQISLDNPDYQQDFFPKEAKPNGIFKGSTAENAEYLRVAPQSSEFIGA
Chain of Fibroblast growth factor receptor 1 (P11362 434-822 limits assumed): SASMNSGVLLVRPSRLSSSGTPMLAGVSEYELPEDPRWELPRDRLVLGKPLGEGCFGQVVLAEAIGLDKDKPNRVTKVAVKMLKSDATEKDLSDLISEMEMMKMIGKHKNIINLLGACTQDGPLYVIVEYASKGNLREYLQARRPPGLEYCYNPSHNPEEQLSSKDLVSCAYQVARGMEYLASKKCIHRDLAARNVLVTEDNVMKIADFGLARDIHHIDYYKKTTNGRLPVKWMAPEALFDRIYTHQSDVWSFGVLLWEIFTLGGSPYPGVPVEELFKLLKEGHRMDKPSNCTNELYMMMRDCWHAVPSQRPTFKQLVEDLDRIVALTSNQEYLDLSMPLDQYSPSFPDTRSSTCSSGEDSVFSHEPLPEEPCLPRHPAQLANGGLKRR
Chain of TrkB (Q16620 32-822, species assumed): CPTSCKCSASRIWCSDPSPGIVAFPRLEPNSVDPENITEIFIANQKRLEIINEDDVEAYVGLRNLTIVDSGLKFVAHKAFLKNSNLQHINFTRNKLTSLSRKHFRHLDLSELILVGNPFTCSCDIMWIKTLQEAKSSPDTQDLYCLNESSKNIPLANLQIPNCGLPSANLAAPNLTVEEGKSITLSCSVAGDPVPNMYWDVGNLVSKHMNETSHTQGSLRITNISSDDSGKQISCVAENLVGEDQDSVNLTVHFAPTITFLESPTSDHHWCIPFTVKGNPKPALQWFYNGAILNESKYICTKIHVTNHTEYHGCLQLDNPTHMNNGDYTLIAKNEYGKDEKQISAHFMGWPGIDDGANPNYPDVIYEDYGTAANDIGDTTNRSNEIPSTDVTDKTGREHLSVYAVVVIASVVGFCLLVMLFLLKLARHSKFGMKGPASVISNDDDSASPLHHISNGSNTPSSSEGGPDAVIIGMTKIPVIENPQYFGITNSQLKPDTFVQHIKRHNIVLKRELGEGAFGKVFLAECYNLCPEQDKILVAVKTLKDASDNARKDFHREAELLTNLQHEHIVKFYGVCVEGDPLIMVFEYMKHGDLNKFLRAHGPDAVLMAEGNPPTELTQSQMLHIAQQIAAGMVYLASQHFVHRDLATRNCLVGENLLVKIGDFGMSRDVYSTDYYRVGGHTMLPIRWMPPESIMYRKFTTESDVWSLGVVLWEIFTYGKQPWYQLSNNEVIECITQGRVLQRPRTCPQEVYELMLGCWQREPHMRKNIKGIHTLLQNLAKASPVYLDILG
T1 sequence (P11309 whole entry): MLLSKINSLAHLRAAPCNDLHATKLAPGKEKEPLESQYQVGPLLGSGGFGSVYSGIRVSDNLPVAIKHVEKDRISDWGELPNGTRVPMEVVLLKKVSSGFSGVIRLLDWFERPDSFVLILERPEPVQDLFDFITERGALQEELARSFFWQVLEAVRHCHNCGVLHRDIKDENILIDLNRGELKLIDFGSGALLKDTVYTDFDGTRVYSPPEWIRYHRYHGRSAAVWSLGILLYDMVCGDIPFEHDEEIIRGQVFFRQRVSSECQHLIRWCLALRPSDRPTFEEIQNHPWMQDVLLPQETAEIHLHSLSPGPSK

On to `CS(=O)(=O)O.CS(=O)(=O)O.Cc1ccc(NC(=O)c2ccc(CN3CCN(C)CC3)cc2)cc1Nc1nc(-c2cccnc2)cs1` [masitinib, 4-(4-methylpiperazin-1-ylmethyl)-N-[4-methyl-3-(4-pyridin-3ylthiazol-2-ylamino)phenyl]benzamide-mesylate methane sulfonic acid salt], for which the IC50 was 7 ± 1.9 µM at TrkB; 0.2 ± 0.05 µM in data set [1]; > 10 µM at Pim1; > 10 µM in data set [2]; > 10 µM in data set [4]; > 10 µM at Jak2. The “effect on total body weight” value in data set [3] (30 mg/kg intraperitoneal twice daily for 25 days) is “did not affect the total body weight”. Besides, the tumour growth result is reported as “Tumour growth stabilised” in data set [3] (30 mg/kg intraperitoneal twice daily for 25 days, tumours 400 mm^3) and “tumour growth was blocked” in data set [3] (100 mg/kg oral twice daily, 5 days, tumours 500 mm^3 (data not shown)). The median survival time in data set [3] (30 mg/kg intraperitoneal twice daily for 25 days, tumours 400 mm^3, control 30.5 days) is recorded as 42 days. The “average tumour volume, placebo group compared to masitinib treated group” value in data set [3] (30 mg/kg intraperitoneal twice daily, after 10 days of treatment (day 29)) was ~4 fold. In addition, the “average tumour volume increase” value in data set [3] (30 mg/kg oral twice daily) is reported as 355%; in data set [3] (45 mg/kg oral twice daily), 154%. In addition, the “animals with no detectable tumours at day 25” value in data set [3] (30 mg/kg oral twice daily) is reported as “one”; in data set [3] (45 mg/kg oral twice daily), “two”. In addition, the “effect on body weight gain” value in data set [3] (10, 30, or 45 mg/kg oral twice daily) is given as “did not affect body weight gain”.
